These results are taken from patent publication US20090054392A1, “NAPHTHYLPYRIMIDINE, NAPHTHYLPYRAZINE AND NAPHTHYLPYRIDAZINE ANALOGS AND THEIR USE AS AGONISTS OF THE WNT-BETA-CATENIN CELLULAR MESSAGING SYSTEM” (Wyeth, priority 2007, published 2009).

The series concerns Dkk1-LRP5-TCF-Luciferase. Kind of series: Functional Dkk1-LRP5-TCF-Luciferase Assay in U2OS Cells. The note with it: for fold induction at 2 µM / fold induction at 20 µM / EC50: Homo sapiens, U2OS; for fold induction at 2 µM: read-out: B = TCF ACTIVITY/DMSO CONTROL Fold induction @ 2.0 uM, 2.0 uM compound; for fold induction at 20 µM: read-out: C = TCF ACTIVITY/DMSO CONTROL Fold induction @ 20.0 uM, 20.0 uM compound; for A = MAX FOLD Induction/DMSO CONTROL: maximum fold induction over DMSO control.

On to `c1ccc2cc(-c3ccnc(N4CCN(CCCN5CCOCC5)CC4)n3)ccc2c1` [4-(3-{4-[4-(2-naphthyl)pyrimidin-2-yl]piperazin-1-yl}propyl)morpholine], for which the fold induction at 2 µM was 1.29 and the fold induction at 20 µM is 0.01.

With `CC(C)NC(=O)NCCN1CCN(c2nccc(-c3ccc4ccccc4c3)n2)CC1` [N-isopropyl-N′-(2-{4-[4-(2-naphthyl)pyrimidin-2-yl]piperazin-1-yl}ethyl)urea], the fold induction at 2 µM amounted to 1.06 and the fold induction at 20 µM stood at 0.1.

In general, EC50 refers to the concentration at which the effect is half-maximal. Higher therefore signals lower potency in that assay. Regarding `NCCC1CCN(c2nccc(-c3ccc4ccccc4c3)n2)C1` (stereo not drawn) [2-{1-[4-(2-naphthyl)pyrimidin-2-yl]pyrrolidin-3-yl}ethanamine], the EC50 turned out to be 0.7 µM, the fold induction at 2 µM worked out at 4.23 and the “A = MAX FOLD Induction/DMSO CONTROL” value turned out to be 5.940 fold.

As to `CN1CCN(CC2CCN(c3nccc(-c4ccc5ccccc5c4)n3)C2)CC1` (stereo not drawn) [2-{3-[(4-methylpiperazin-1-yl)methyl]pyrrolidin-1-yl}-4-(2-naphthyl)pyrimidine], the fold induction at 2 µM came out at 2.7 and the “A = MAX FOLD Induction/DMSO CONTROL” value is reported as 1.340 fold.

Consider `c1ccc2cc(-c3ccnc(N4CC[C@H](Cn5ccnc5)C4)n3)ccc2c1` [2-[(3R)-3-(1H-imidazol-1-ylmethyl)pyrrolidin-1-yl]-4-(2-naphthyl)pyrimidine], for which the fold induction at 2 µM worked out at 1.95, the fold induction at 20 µM stood at 3.04 and the “A = MAX FOLD Induction/DMSO CONTROL” value is recorded as 3.290 fold.

Consider `CN(C)S(=O)(=O)N1CC[C@H](Nc2nccc(-c3ccc4ccccc4c3)n2)C1` [(3S)—N,N-dimethyl-3-{[4-(2-naphthyl)pyrimidin-2-yl]amino}pyrrolidine-1-sulfonamide], for which the midpoint of the response, the EC50, lay at 3.96 µM; the fold induction at 2 µM was 1.09; the fold induction at 20 µM was determined as 2.01; the “A = MAX FOLD Induction/DMSO CONTROL” value is 2.050 fold.

Consider `CN(CCN(C)S(=O)(=O)c1ccccc1)[C@@H]1CCN(c2nccc(-c3ccc4ccccc4c3)n2)C1` [N-methyl-N-[2-(methyl{(3R)-1-[4-(2-naphthyl)pyrimidin-2-yl]pyrrolidin-3-yl}amino)ethyl]benzenesulfonamide], for which the fold induction at 20 µM is 1.4.

Take `CN(C)CC1CCN(c2nccc(-c3ccc4ccccc4c3)n2)CC1` [N,N-dimethyl-1-{1-[4-(2-naphthyl)pyrimidin-2-yl]piperidin-4-yl}methanamine]: the fold induction at 2 µM is 1.85.

Consider `O=C(N1CCOCC1)N1CCC(Nc2nccc(-c3ccc4ccccc4c3)n2)CC1` [N-[1-(morpholin-4-ylcarbonyl)piperidin-4-yl]-4-(2-naphthyl)pyrimidin-2-amine], for which the fold induction at 2 µM is 1.03 and the fold induction at 20 µM was found to be 1.07.

Turning to `CC(C1CCN(c2nccc(-c3ccc4ccccc4c3)n2)CC1)[N+](=O)[O-]` (stereo not drawn) [4-(2-naphthyl)-2-[4-(1-nitroethyl)piperidin-1-yl]pyrimidine], the fold induction at 20 µM amounted to 1.44.

Consider `C[C@H](N)C1CCN(c2nccc(-c3ccc4ccccc4c3)n2)CC1` [(1S)-1-{1-[4-(2-naphthyl)pyrimidin-2-yl]piperidin-4-yl}ethanamine], for which the EC50 was found to be 0.865 µM and the “A = MAX FOLD Induction/DMSO CONTROL” value turned out to be 1.940 fold.

With `NCC1(O)CCN(c2nccc(-c3ccc4ccccc4c3)n2)CC1` [4-(aminomethyl)-1-[4-(2-naphthyl)pyrimidin-2-yl]piperidin-4-ol], the 50% effective concentration (EC50) turned out to be 1.18 µM, the fold induction at 2 µM is 1.6 and the “A = MAX FOLD Induction/DMSO CONTROL” value amounted to 2.950 fold.

Regarding `CCN(CC)CC1CCN(c2nccc(-c3ccc4ccccc4c3)n2)CC1` [N-ethyl-N-({1-[4-(2-naphthyl)pyrimidin-2-yl]piperidin-4-yl}methyl)ethanamine], the fold induction at 2 µM was 1.14 and the fold induction at 20 µM was 0.02.

Consider `CN(C)C(=O)NC1CCCN(c2nccc(-c3ccc4ccccc4c3)n2)CC1` (stereo not drawn) [N,N-dimethyl-N′-{1-[4-(2-naphthyl)pyrimidin-2-yl]azepan-4-yl}urea], for which the fold induction at 2 µM turned out to be 1.74 and the fold induction at 20 µM came out at 1.75.

`O=C1CCCN1[C@@H]1CCN(c2nccc(-c3ccc4ccccc4c3)n2)C1` [(3′R)-1′-[4-(2-naphthyl)pyrimidin-2-yl]-1,3′-bipyrrolidin-2-one]: the EC50 was 4.51 µM, the fold induction at 2 µM turned out to be 1.43, the fold induction at 20 µM amounted to 2.12 and the “A = MAX FOLD Induction/DMSO CONTROL” value stood at 1.935 fold.

As for `CCNC(=O)N1CCC(N(C)c2nccc(-c3ccc4ccccc4c3)n2)CC1` [N-ethyl-4-{methyl[4-(2-naphthyl)pyrimidin-2-yl]amino}piperidine-1-carboxamide], the fold induction at 2 µM came to 1.2 and the fold induction at 20 µM came to 1.45.

On to `OC1CCCN([C@@H]2CCN(c3nccc(-c4ccc5ccccc5c4)n3)C2)C1` (stereo partly drawn) [1-{(3R)-1-[4-(2-naphthyl)pyrimidin-2-yl]pyrrolidin-3-yl}piperidin-3-ol], for which the concentration giving a half-maximal response (EC50) is 3.64 µM, the fold induction at 2 µM turned out to be 2.06, the fold induction at 20 µM came to 1.05 and the “A = MAX FOLD Induction/DMSO CONTROL” value was 5.120 fold.

Consider `CCN(CC)C(=O)NCCC1CCN(c2nccc(-c3ccc4ccccc4c3)n2)CC1` [N,N-diethyl-N′-(2-{1-[4-(2-naphthyl)pyrimidin-2-yl]piperidin-4-yl}ethyl)urea], for which the fold induction at 2 µM worked out at 1.13 and the fold induction at 20 µM is 0.33.

Take `NCC1CCCN(c2nccc(-c3ccc4ccccc4c3)n2)C1` (stereo not drawn) [({1-[4-(2-naphthyl)pyrimidin-2-yl]piperidin-3-yl}methyl)amine]: the EC50 was determined as 2.68 µM, the fold induction at 2 µM stood at 2.9, the fold induction at 20 µM is 0.005 and the “A = MAX FOLD Induction/DMSO CONTROL” value is listed as 5.433 fold.

Regarding `CN(C)C(=O)NCC1CN(c2nccc(-c3ccc4ccccc4c3)n2)C1` [N,N-dimethyl-N′-({1-[4-(2-naphthyl)pyrimidin-2-yl]azetidin-3-yl}methyl)urea], the fold induction at 2 µM stood at 0.99 and the fold induction at 20 µM is 1.43.

Regarding `N[C@@H]1CCN(c2nccc(-c3ccc4ccccc4c3)n2)C1` [(3R)-1-[4-(2-naphthyl)pyrimidin-2-yl]pyrrolidin-3-amine], the fold induction at 2 µM was 1.62 and the fold induction at 20 µM was 0.01.

On to `c1ccc2cc(-c3ccnc(NC[C@H]4CCNC4)n3)ccc2c1` [4-(2-naphthyl)-N-[(3S)-pyrrolidin-3-ylmethyl]pyrimidin-2-amine], for which the midpoint of the response, the EC50, lay at 3.74 µM and the “A = MAX FOLD Induction/DMSO CONTROL” value is on record as 6.810 fold.

Regarding `CN1CCN(C(=O)[C@@H]2CCCN2c2nccc(-c3ccc4ccccc4c3)n2)CC1` [2-{(2S)-2-[(4-methylpiperazin-1-yl)carbonyl]pyrrolidin-1-yl}-4-(2-naphthyl)pyrimidine], the fold induction at 2 µM worked out at 0.9 and the fold induction at 20 µM was determined as 1.6.

For the compound `CS(=O)(=O)NCCN1CCN(c2nccc(-c3ccc4ccccc4c3)n2)CC1` [N-(2-{4-[4-(2-naphthyl)pyrimidin-2-yl]piperazin-1-yl}ethyl)methanesulfonamide], a half-maximal effect (EC50) was put at 5.4 µM, the fold induction at 2 µM was 1.31, the fold induction at 20 µM was 1.93 and the “A = MAX FOLD Induction/DMSO CONTROL” value came out at 1.700 fold.

Turning to `c1ccc2cc(-c3ccnc(N4CC[C@H](N5CCCCCC5)C4)n3)ccc2c1` [1-{(3S)-1-[4-(2-naphthyl)pyrimidin-2-yl]pyrrolidin-3-yl}azepane], the fold induction at 2 µM came out at 3.97 and the “A = MAX FOLD Induction/DMSO CONTROL” value was determined as 3.220 fold.
